Counter-ions that a name gives are not always drawn.
What was measured:
[1] = tested on: IL-17 production by CD4 T cells; assay: Human Th17 assay (IL-17 production by CD4 T cells under Th17 differentiation conditions); assay type: cell-based; details: IL-17 in supernatant after 3 days
Protocol: The human Th17 assay tests the effect of RORγt modulatory compounds on IL-17 production by CD4 T cells under conditions which favor Th17 differentiation. Total CD4^+ T cells were isolated from the peripheral blood mononuclear cells (PBMC) of healthy donors using a CD4^+ T cell isolation kit II, following the manufacturer's instructions (Miltenyi Biotec). […] 50 μL of compound at titrated concentrations in DMSO were added into each well at final DMSO concentration at 0.2%. Cells were incubated for 1 hour, then 50 μL of Th17 cell differentiation medium was added to each well. The final concentrations of antibodies and cytokines (R&D Systems) in differentiation medium were: 3×10^6/mL anti-CD3/CD28 beads (prepared using human T cell activation/expansion kit, Miltenyi Biotec), 10 μg/mL anti-IL4, 10 μg/mL anti-IFNγ, 10 ng/mL IL113, 10 ng/mL IL23, 50 ng/mL IL6, 3 ng/mL TGFβ and 20 U/mL IL2. Cells were cultured at 37° C. and 5% CO2 for 3 days. Supernatants were collected and the accumulated IL-17 in culture was measured by using MULTI-SPOT® Cytokine Plate following manufacture's instruction (Meso Scale Discovery). The plate was read using Sector Imager 6000, and IL-17 concentration was extrapolated from the standard curve. The IC50s were determined by GraphPad.

[2] = target: T1, human RORγt ligand binding domain (RORγt LBD) (Homo sapiens, UniProt P51449); assay: RORγt ThermoFluor assay (thermal shift, ligand binding affinity); details: estimated from concentration response of thermal shift
T1 construct: His-tag (N); TurboTEV protease cleavage site (ENLYFQG) (N); made in house; host or cells: E. coli (pHIS1, modified pET vector)
T1 sequence (P51449 with tags, fused parts or gaps): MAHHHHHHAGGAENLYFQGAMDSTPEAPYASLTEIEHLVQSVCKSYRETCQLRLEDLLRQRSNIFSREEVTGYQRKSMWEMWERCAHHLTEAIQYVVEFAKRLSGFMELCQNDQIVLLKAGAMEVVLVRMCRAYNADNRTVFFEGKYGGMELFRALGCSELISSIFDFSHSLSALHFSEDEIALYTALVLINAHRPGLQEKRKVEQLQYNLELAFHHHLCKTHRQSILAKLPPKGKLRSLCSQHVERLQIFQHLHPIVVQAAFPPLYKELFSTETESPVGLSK
Outline: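 Thermal shift of 0.065 mg/mL RORγt with 60 μM 1,8-ANS in 100 mM Hepes pH 7.0, 10 mM NaCl, 2.5 mM GSH, 0.002% Tween-20. Compounds in 1:2 series from 10 mM DMSO stock. Dye fluorescence (500 nm emission) tracked versus temperature; ΔTm used to derive KD.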

human RORγt LBD = target: T2, human RORγt LBD (Homo sapiens, UniProt P51449); assay: RORγt reporter assay (GAL4-RORγt LBD luciferase in HEK293T cells); assay type: cell-based; details: for IC50: HEK293T cells, 24 hours compound treatment; for inhibition at 6 µM: HEK-293T, read-out: RORγt reporter Assay, % inhibition @ 6 μM, HEK293T cells, 6 μM compound
T2 construct: expressed in transfected cells
T2 sequence (P51449 258-518): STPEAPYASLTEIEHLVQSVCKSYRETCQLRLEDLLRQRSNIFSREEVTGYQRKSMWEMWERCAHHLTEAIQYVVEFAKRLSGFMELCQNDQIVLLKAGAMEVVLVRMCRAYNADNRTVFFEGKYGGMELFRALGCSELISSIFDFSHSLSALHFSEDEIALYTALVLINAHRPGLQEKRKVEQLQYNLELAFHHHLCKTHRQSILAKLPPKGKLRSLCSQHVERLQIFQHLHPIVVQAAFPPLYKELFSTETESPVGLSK
Outline: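 HEK293T cells transiently co-transfected with pBIND (GAL4 DBD fused to wild-type human RORγt LBD, plus SV40-driven renilla luciferase) and pGL4.31 GAL4-responsive firefly luciferase reporter. Plated in phenol-red-free DMEM with 5% lipid-reduced FCS and treated with compound for 24 h. Firefly/renilla luminescence ratio plotted against compound concentration.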

Cn1cncc1C(O)(c1ccc(Cl)cc1)c1ccc2nc(Cl)c(-c3ccccc3)c(Cl)c2c1 (racemic) [Example 119a, (4-Chlorophenyl)(2,4-dichloro-3-phenylquinolin-6-yl)(1-methyl-1H-imidazol-5-yl)methanol]
IC50 ([1]; Homo sapiens, CD4+ T, 72 h): 1800 nM

Cn1cncc1C(O)(c1ccc(Cl)cc1)c1ccc2nc(Cl)c(-c3ccccc3)c(Cl)c2c1 (single isomer, unassigned) [Example 119b, (4-Chlorophenyl)(2,4-dichloro-3-phenylquinolin-6-yl)(1-methyl-1H-imidazol-5-yl)methanol]
IC50 [1]: 15000 nM

Cn1cncc1C(O)(c1ccc(Cl)cc1)c1ccc2nc(Cl)c(-c3ccccc3)c(Cl)c2c1 (single isomer, unassigned) [Example 119c, (4-Chlorophenyl)(2,4-dichloro-3-phenylquinolin-6-yl)(1-methyl-1H-imidazol-5-yl)methanol]
IC50 ([1]; Homo sapiens, CD4+ T, 72 h): 700 nM

N#Cc1nc2ccc(C(O)(c3ccc(C(F)(F)F)nc3)c3cccc(Cl)c3)cc2c(C#N)c1-c1ccccc1 (stereo not drawn) [Example 114, 6-{(3-Chlorophenyl)(hydroxy) [6-(trifluoromethyl)pyridin-3-yl]methyl}-3-phenylquinoline-2,4-dicarbonitrile]
Kd [2]: 610 nM | IC50 (human RORγt LBD): 740 nM | inhibition at 6 µM (human RORγt LBD): 104%

Cn1cncc1C(O)(c1ccc2nc(C(F)(F)F)c(-c3ccccc3)c(C#N)c2c1)c1ccccn1 (stereo not drawn) [Example 118, 6-(Hydroxy(1-methyl-1H-imidazol-5-yl)(pyridin-2-yl)methyl)-3-phenyl-2-(trifluoromethyl)quinoline-4-carbonitrile•TFA]
Kd [2]: 360 nM | IC50 (human RORγt LBD): 370 nM | inhibition at 6 µM (human RORγt LBD): 94%

Cn1ccnc1C(O)(c1ccnnc1)c1ccc2nc(Cl)c(-c3ccccc3)c(Cl)c2c1 (stereo not drawn) [Example 121, (2,4-Dichloro-3-phenylquinolin-6-yl)(1-methyl-1H-imidazol-2-yl)(pyridazin-4-yl)methanol]
Kd [2]: 1700 nM | IC50 (human RORγt LBD): ~2000 nM | inhibition at 6 µM (human RORγt LBD): 72%

Cn1ccnc1C(O)(c1ccc2nc(Cl)c(-c3ccccc3)c(Cl)c2c1)c1cnccn1 (stereo not drawn) [Example 123, (2,4-Dichloro-3-phenylquinolin-6-yl)(1-methyl-1H-imidazol-2-yl)(pyrazin-2-yl)methanol]
Kd [2]: 2200 nM | IC50 (human RORγt LBD): ~6000 nM | inhibition at 6 µM (human RORγt LBD): 70%

Cn1ccnc1C(O)(c1cncnc1)c1ccc2nc(Cl)c(-c3ccccc3)c(Cl)c2c1 (stereo not drawn) [Example 125, (2,4-Dichloro-3-phenylquinolin-6-yl)(1-methyl-1H-imidazol-2-yl)(pyrimidin-5-yl)methanol]
Kd [2]: 650 nM | IC50 (human RORγt LBD): 1000 nM | inhibition at 6 µM (human RORγt LBD): 66%

Cn1cncc1C(O)(c1ccnnc1)c1ccc2nc(Cl)c(-c3ccccc3)c(Cl)c2c1 (stereo not drawn) [Example 126, (2,4-Dichloro-3-phenylquinolin-6-yl)(1-methyl-1H-imidazol-5-yl)(pyridazin-4-yl)methanol]
Kd [2]: 21 nM | IC50 (human RORγt LBD): 220 nM | inhibition at 6 µM (human RORγt LBD): 97%

COC(c1ccc2nc(Cl)c(-c3ccccc3)c(Cl)c2c1)(c1cnccn1)c1cncn1C (stereo not drawn) [Example 127, 2,4-Dichloro-6-(methoxy(1-methyl-1H-imidazol-5-yl)(pyrazin-2-yl)methyl)-3-phenylquinoline•TFA]
Kd [2]: 990 nM | IC50 (human RORγt LBD): 1600 nM | inhibition at 6 µM (human RORγt LBD): 88%

Cc1noc(C)c1C(O)(c1ccc(Cl)cc1)c1ccc2nc(Cl)c(-c3ccccc3)c(Cl)c2c1 (stereo not drawn) [Example 133, (4-Chlorophenyl)(2,4-dichloro-3-phenylquinolin-6-yl)(3,5-dimethylisoxazol-4-yl)methanol•TFA]
Kd [2]: 1500 nM | IC50 (human RORγt LBD): > 6000 nM | inhibition at 6 µM (human RORγt LBD): 41%

Cn1nncc1C(O)(c1ccc(Cl)cc1)c1ccc2nc(Cl)c(-c3ccccc3)c(Cl)c2c1 (stereo not drawn) [Example 144, (4-Chlorophenyl)(2,4-dichloro-3-phenylquinolin-6-yl)(1-methyl-1H-1,2,3-triazol-5-yl)methanol]
Kd [2]: 260 nM | IC50 (human RORγt LBD): 520 nM | inhibition at 6 µM (human RORγt LBD): 102%

Cc1nc2cc(C(O)(c3ccc4nc(Cl)c(-c5ccccc5)c(Cl)c4c3)c3cncn3C)ccc2o1 (stereo not drawn) [Example 146, (2,4-Dichloro-3-phenylquinolin-6-yl)(1-methyl-1H-imidazol-5-yl)(2-methylbenzo[d]oxazol-5-yl)methanol]
Kd [2]: 77 nM | IC50 (human RORγt LBD): 130 nM | inhibition at 6 µM (human RORγt LBD): 112%

COCCCn1cncc1C(O)(c1ccc(Cl)cc1)c1ccc2nc(Cl)c(-c3ccccc3)c(Cl)c2c1 (stereo not drawn) [Example 147, (4-Chlorophenyl)(2,4-dichloro-3-phenylquinolin-6-yl)(1-(3-methoxypropyl)-1H-imidazol-5-yl)methanol]
Kd [2]: 1100 nM | IC50 (human RORγt LBD): 1300 nM | inhibition at 6 µM (human RORγt LBD): 97%

OC(c1ccc(Cl)cc1)(c1cccnc1)c1ccc2nc(-c3cccnc3)c(-c3ccccc3)c(Cl)c2c1 (stereo not drawn) [Example 151, (4-Chloro-3-phenyl-2-(pyridin-3-yl)quinolin-6-yl)(4-chlorophenyl)(pyridin-3-yl)methanol]
Kd [2]: 5000 nM | IC50 (human RORγt LBD): 2200 nM | inhibition at 6 µM (human RORγt LBD): 85%

Cn1cncc1C(O)(c1ccncc1)c1cc(F)c2nc(Cl)c(-c3ccccc3)c(Cl)c2c1 (stereo not drawn) [Example 155, (2,4-Dichloro-8-fluoro-3-phenylquinolin-6-yl)(1-methyl-1H-imidazol-5-yl)(pyridin-4-yl)methanol•TFA]
Kd [2]: 68 nM | IC50 (human RORγt LBD): 110 nM | inhibition at 6 µM (human RORγt LBD): 96%

Cc1ccc(C(O)(c2cc(C)c3nc(Cl)c(-c4ccccc4)c(Cl)c3c2)c2cncn2C)cn1 (stereo not drawn) [Example 156, (2,4-Dichloro-8-methyl-3-phenylquinolin-6-yl)(1-methyl-1H-imidazol-5-yl)(6-methylpyridin-3-yl)methanol•TFA]
Kd [2]: 57 nM | IC50 (human RORγt LBD): 320 nM | inhibition at 6 µM (human RORγt LBD): 98%

Cn1cncc1C(O)(c1ccncc1)c1ccc2nc(Cl)c(-c3ccccc3)c(Cl)c2c1F (stereo not drawn) [Example 162, (2,4-Dichloro-5-fluoro-3-phenylquinolin-6-yl)(1-methyl-1H-imidazol-5-yl)(pyridin-4-yl)methanol•TFA]
Kd [2]: 200 nM | IC50 (human RORγt LBD): 910 nM | inhibition at 6 µM (human RORγt LBD): 92%

Cn1cncc1C(O)(c1ccc(Cl)cc1)c1ccc2nc(Cl)c(-c3ccccc3)c(Cl)c2c1F (stereo not drawn) [Example 163, (4-Chlorophenyl)(2,4-dichloro-5-fluoro-3-phenylquinolin-6-yl)(1-methyl-1H-imidazol-5-yl)methanol•TFA]
Kd [2]: 1200 nM | IC50 (human RORγt LBD): 1400 nM | inhibition at 6 µM (human RORγt LBD): 87%

OC(c1ccccc1)(c1ccc2nc(C(F)(F)F)c(-c3ccccc3)c(C(F)(F)F)c2c1)C1CCNCC1 (stereo not drawn) [Example 167, Phenyl(3-phenyl-2,4-bis(trifluoromethyl)quinolin-6-yl)(piperidin-4-yl)methanol•TFA]
Kd [2]: 400 nM | IC50 (human RORγt LBD): > 6000 nM | inhibition at 6 µM (human RORγt LBD): 62%

CCN1CCC(C(O)(c2ccccc2)c2ccc3nc(C(F)(F)F)c(-c4ccccc4)c(C(F)(F)F)c3c2)CC1 (stereo not drawn) [Example 168, (1-Ethylpiperidin-4-yl)(phenyl)(3-phenyl-2,4-bis(trifluoromethyl)quinolin-6-yl)methanol•TFA]
Kd [2]: 3300 nM | IC50 (human RORγt LBD): ~6000 nM | inhibition at 6 µM (human RORγt LBD): 71%

Cn1cncc1C(O)(c1ccc(C(F)(F)F)nc1)c1ccc2nc(C(F)(F)F)c(-c3ccccc3)c(Cl)c2c1 (stereo not drawn) [Example 172, (4-Chloro-3-phenyl-2-(trifluoromethyl)quinolin-6-yl)(1-methyl-1H-imidazol-5-yl)(6-(trifluoromethyl)pyridin-3-yl)methanol•TFA]
Kd [2]: 4.6 nM | IC50 (human RORγt LBD): 140 nM | inhibition at 6 µM (human RORγt LBD): 96%

Reference: patent publication US9309222B2, “Phenyl linked quinolinyl modulators of RORγt” (Janssen Pharmaceutica NV, priority 2012, dated 2016)
